# Measurements: patent US12539269B2, “Composition for blocking ultraviolet rays and fine dust, and preparation method thereof” (SANG HWANG MI-IN CO., LTD, priority 2020, dated 2026)
# Test system: HaCaT
# Assay: Hyaluronic acid production amount (ELISA kit) in BP-stimulated keratinocytes
# Type: cell-based
# Protocol: In order to confirm whether the extract of a black hoof mushroom, a shiitake mushroom, and an oyster mushroom increased the hyaluronic acid (HA) production amount in HaCaT which is a keratinocyte, measurement was performed with an ELISA kit, and the results are shown in Table 7. In Table 7, N (normal) is a BP (benzo[α]pyrene)-unstimulated group, and C (control) is a BP (benzo[α]pyrene)-stimulated group.
structure (smiles),measurement,setting,value
O=C(O[C@@H]1Cc2c(O)cc(O)cc2O[C@@H]1c1cc(O)c(O)c(O)c1)c1cc(O)c(O)c(O)c1 [EGCG],Increase of hyaluronic acid production versus control group (increase rate),"10 μg/mL, versus control C 99.3 ng/mL",6.3 ng/mL
same,Hyaluronic acid production amount,"BP (benzo[α]pyrene)-stimulated, EGCG 10 μg/mL, N 198, C 99.3",105.6 ng/mL
